Here are results for one compound from publication PMC6013774 (Chemical Science, 2016).

For orientation: Kd means the free concentration of one partner at which half of the binding sites on the other are occupied at equilibrium, for simple one-to-one binding. Read a low Kd as a tighter complex.

This assay concerns the target T1, AhbD (Methanosarcina barkeri, UniProt Q46CH7).
T1 sequence (Q46CH7 1-349): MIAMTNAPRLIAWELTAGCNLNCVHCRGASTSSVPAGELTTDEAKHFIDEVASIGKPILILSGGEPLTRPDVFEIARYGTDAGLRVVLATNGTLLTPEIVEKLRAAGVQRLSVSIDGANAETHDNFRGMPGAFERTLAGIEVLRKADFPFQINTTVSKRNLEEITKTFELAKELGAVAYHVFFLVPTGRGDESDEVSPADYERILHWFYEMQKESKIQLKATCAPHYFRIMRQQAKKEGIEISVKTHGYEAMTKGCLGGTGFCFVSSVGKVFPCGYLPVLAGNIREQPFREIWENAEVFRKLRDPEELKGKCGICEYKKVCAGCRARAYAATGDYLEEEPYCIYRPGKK
The assay can be described thus: tryptophan fluorescence quenching. Format: binding.

`CC1=C(CCC(=O)O)c2cc3nc(cc4[nH]c(cc5[nH]c(cc1n2)c(C)c5CCC(=O)O)c(CCC(=O)O)c4C)C(CCC(=O)O)=C3C` [COPRO III]: the Kd is 33.9 ± 3.9 µM.
